Measured values reported in patent US12357666B1, “Traditional Chinese herbal plant composition for improving symptoms of liver cancer patients and compatibility method thereof” (The First Hospital of China Medical University, priority 2024, dated 2025).

How the values were obtained:
[1] = Organ index (lung, liver, heart, kidney) of tumor mice; format: in vivo, BALB/c nude mice; conditions: 28 d
Text: (§1) Totally 90 male BALB/c nude mice aged 5 weeks and with body weight of 19-22 g were used.
(§2) A total of 80 BALB/c nude mice were randomly selected and injected subcutaneously with Hep G2 cell line (5×10^6 cells) in the right armpits.
After 28 d of continuous administration, the mice in each group were weighed and killed by cervical dissection. Tumors and organs (lung, liver, heart and kidney) of the mice in each group were removed under sterile conditions, and washed with physiological saline. After washing, the tumors and the organs were dried with filter paper, weighed to obtain mass and recorded, and the tumor inhibition rate and organ index were calculated. The tumor mass of the mice was the average value of the tumor mass of each group of mice. Tumor inhibition rate=(tumor mass of mice in the model group-tumor mass of mice in the test group)/tumor mass of mice in the model group×100%. Organ index (mg/g)=organ mass (mg)/body mass (g) of mice.

Hep G2 cell line = assay: Anti-tumor effect on tumor mice (subcutaneous Hep G2 model): tumor mass and tumor inhibition rate; format: in vivo, BALB/c nude mice; conditions: 28 d
Text: The effect example explored the anti-tumor effect of the herbal plant compositions of Embodiment 1 and Comparative Examples 1 to 3 on tumor mice, and a specific process is as follows.
as §1, §2
Dosing Criteria: the conventional gavage dose of mice was […]. Generally, it is also necessary to increase the dose of the original medicinal material of the herbal plant composition by 1 time and decrease the dose of the original medicinal material of the herbal plant composition by 1 time for gavage.
Low-dose Embodiment 1 Herbal Plant Composition Group: 10 mice, administered 5.27 g/kg Embodiment 1 herbal plant composition by gavage.
Medium-dose Embodiment 1 Herbal Plant Composition Group: 10 mice, administered 10.53 g/kg Embodiment 1 herbal plant composition by gavage.
High-dose Embodiment 1 Herbal Plant Composition Group: 10 mice, administered 21.06 g/kg Embodiment 1 herbal plant composition by gavage.
High-dose Comparative Example 1 Herbal Plant Composition Group: 10 mice, administered 21.06 g/kg Comparative Example 1 herbal plant composition by gavage.
High-dose Comparative Example 2 Herbal Plant Composition Group: 10 mice, administered 21.06 g/kg Comparative Example 2 herbal plant composition by gavage.
High-dose Comparative Example 3 Herbal Plant Composition Group: 10 mice, administered 21.06 g/kg Comparative Example 3 herbal plant composition by gavage.
Western medicine control group: 10 mice, administered 0.03 g/kg 5-fluorouracil by gavage.
After 28 d of continuous administration, the mice in each group were weighed and killed by cervical dissection. […] After washing, the tumors and the organs were dried with filter paper, weighed to obtain mass and recorded, and the tumor inhibition rate and organ index were calculated. […]

Cardiac Index ([1]; 0.03 g/kg by gavage): 5.13 mg/g
Liver index ([1]; 0.03 g/kg by gavage): 42.78 mg/g
Lung index ([1]; 0.03 g/kg by gavage): 5.96 mg/g
Renal index ([1]; 0.03 g/kg by gavage): 17.69 mg/g
liver index, renal index, lung index and cardiac index compared to the model group (in words) ([1]; Table 3, gavage): no significant change
SMILES: O=c1[nH]cc(F)c(=O)[nH]1 [Western medicine control group, 5-fluorouracil]
Tumor mass (Hep G2 cell line; 0.03 g/kg by gavage, Hep G2 tumor nude mice): 0.27 g
tumor inhibition rates in mice (in words) (Hep G2 cell line; Table 2, gavage): relatively high
Inhibition rate (%) (Hep G2 cell line; tumor inhibition vs model group, 0.03 g/kg by gavage): 48.07%
